Data from the OPERA property sets (Mansouri et al. 2018).
Where a SMILES comes first, the peptide text is derived from it.

| SMILES | logP |
| --- | --- |
| CC(C)CC(N)C(=O)NC(CO)C(=O)NC(CC(C)C)C(=O)O (stereo not drawn) (H-Leu-Ser-Leu-OH; configuration not given here) | -2.35 |
| CCC(C)C(NC(=O)C(N)CC(C)C)C(=O)O (stereo not drawn) (H-Leu-Ile-OH; configuration not given here) | -1.64 |
| CC(C(=O)O)c1ccc(OCc2ccccc2)c(F)c1 (stereo not drawn) | 3.61 |
| c1ccc(CCNc2ncnc3nc[nH]c23)cc1 | 2.42 |
| CCCC(=NOCC)C1=C(O)CC2(CCC(C)C2)OC1=O (stereo not drawn) | 3.66 |
| CCC(C)C(N)C(=O)N1CCCC1C(=O)NCC(=O)NC(C(=O)O)C(C)CC (stereo not drawn) (H-IPGI-OH; configuration not given here) | -1.69 |
| CNCc1ccc(C)cc1 | 1.96 |
| COC(=O)C(C)=CC1C(C(=O)OCc2cccc(Oc3ccccc3)c2)C1(C)C (stereo not drawn) | 6.48 |
| Cc1oc2cc3oc(=O)ccc3c(C)c2c1C | 3.27 |
| Nc1ccc(S(=O)(=O)Nc2cccc3[nH]ccc23)cc1 | 1.41 |
| CCOC(=O)C1=C(C)NC(C)=C(C(=O)OC(C)C)C1c1cccc2c1OCO2 (stereo not drawn) | 4.71 |
| CCOc1ccc(NC(=O)OC(C)c2ccccc2)cc1OCC (stereo not drawn) | 3.56 |
| COC(=O)C(C)=CC1C(C(=O)OCc2ccccc2)C1(C)C (stereo not drawn) | 4.4 |
| COc1nc(C)nc(Cl)c1NC1=NCCN1 | 0.9 |
| O=C1NC(Cc2c[nH]c3ccccc23)C(=O)NC1Cc1c[nH]c2ccccc12 (stereo not drawn) | 2.04 |
| CCCCON=C(C)c1cccc(Oc2nc(OC)cc(OC)n2)c1C(=O)OC | 4.11 |
| Cc1nc2ccccc2c(=O)n1CC(=O)NNc1ccccc1 | 1.34 |
| CCCC(=O)OCC1OC(n2cc(I)c(=O)[nH]c2=O)CC1O (stereo not drawn) | 0.88 |
| NC1CC(CO)N(c2cc3c(cc2F)c(=O)c(C(=O)O)cn3-c2ccc(F)cc2F)C1 (stereo not drawn) | -0.98 |
| CNc1nc(NC)nc(NC(C)C)n1 | 1.87 |
| CC(C)OC(=O)C(=Cc1ccccc1)S(=O)(=O)c1ccc([N+](=O)[O-])cc1 | 3.62 |
| CC(C)NC(=O)Cn1cccc(O)c1=O | -0.34 |
| C[C@@H]1N=C(c2ccccc2Cl)c2cc([N+](=O)[O-])ccc2NC1=O | 2.72 |
| O=C(NCCCCCOCCCN1CCOCC1)NC12CC3CC(CC(C3)C1)C2 | 2.7 |
| CCCCOc1cccc(NC(=O)OCCN2CCCCC2)c1 | 5.04 |

| SMILES | logP |
| --- | --- |
| Cc1c(O)c(=O)ccn1CCCOC(=O)c1ccc(O)cc1 | 0.8 |
| CCN(CC)C1CCc2c(OC)cccc2C1C (stereo not drawn) | 3.47 |
| Clc1cc(Oc2ccccc2)c(Cl)c(Cl)c1Cl | 6.31 |
| COc1ccc(C(=O)N2CCN(c3ccc4c(c3)CCC(=O)N4)CC2)cc1OC | 1.04 |
| O=C(O)Cc1ccc2c(c1)SCc1ccccc1C2=O | 2.97 |
| CCCNC(=O)c1[nH]cc(-c2ccc(Cl)cc2)c1N1CCOCC1 | 4.2 |
| CCCCCCCNc1ncnc2nc[nH]c12 | 3.71 |
| O=C1c2cc(O)ccc2OCN1CCO[N+](=O)[O-] | 1.63 |
| O=C(O)Cc1c(O)cccc1Nc1c(Cl)cccc1Cl | 4.65 |
| CCCCCCCCCCCCCCNCCO | 5.74 |
| O=C(Cn1ncc([N+](=O)[O-])n1)NCCO | -0.82 |
| Cc1ccc(N2CC(N3CCOCC3)=CC2=O)cc1 | 1.4 |
| CC(=NNC(=O)c1ccc([N+](=O)[O-])cc1)c1cnccn1 | 2.1 |
| Clc1ccc(N2CCN(CCCOn3nnc4ccccc43)CC2)cc1 | 4.15 |
| CCCc1nc(NC)nc(N2CCOCC2)n1 | 2.15 |
| CCOC(=O)C1=C(C)NC(C)=C(C(=O)OC)C1c1cc(OC)cc(OC)c1 (stereo not drawn) | 4.08 |
| Cc1ccc(OCC(O)C(C)NC(C)C)c2c1CCC2 (stereo not drawn) | 3.19 |
| CN1CC(O)N(C(=O)NC2CCCC2)C1=O (stereo not drawn) | 1.47 |
| CCOC(=O)C1=C(C)NC(C)=C(C(=O)OC)C1c1cccc(OC)c1OC (stereo not drawn) | 3.58 |
| COc1cc2ccncc2cc1OC | 1.68 |
| ClCC1(C(Cl)Cl)C2CC(Cl)(Cl)C1(C(Cl)Cl)C(Cl)C2(Cl)Cl (stereo not drawn) | 6.64 |
| Cc1nc2c3c(c(C(=O)N(C)C)cn2c1C(=O)N(C)C)CCC(c1ccccc1)O3 (stereo not drawn) | 1.89 |
| C=CCN(N=O)C(=O)N(CCCCC(NC(C)=O)C(=O)NCc1ccccc1)Cc1ccccc1 (stereo not drawn) | 2.7 |
| N[C@@H](Cc1c[nH]c2ccccc12)C(=O)N[C@@H](Cc1c[nH]c2ccccc12)C(=O)O (H-Trp-Trp-OH) | -0.27 |
| Cc1ccc(C)c(OCC2CN=C(N)O2)c1 (stereo not drawn) | 2.29 |

| SMILES | logP |
| --- | --- |
| CC(Cl)C(=O)Nc1ccc(C2=NNC(=O)CC2C)cc1 (stereo not drawn) | 1.4 |
| C[N+](C)([O-])Cc1ccccc1 | -0.57 |
| CCCc1c2c(cc3c(=O)cc(C(=O)O)oc13)CCCC2 | 4.2 |
| CC(=O)NCCCCCN(O)C(=O)CCC(=O)NCCCCCN(O)C(=O)CCC(=O)NCCCCCN(O)C(C)=O | -0.03 |
| O=C(O)CCCCCON=C(c1cccc(C(F)(F)F)c1)c1ccncn1 | 3.55 |
| O=S(=O)(NC(=S)NC1CCCCC1)c1cnccc1NC1CCCCCC1 | 4.71 |
| CC1CCC2CC(=O)N(CCc3ccccc3)C3OC4(C)CCC1C23OO4 (stereo not drawn) | 3.94 |
| CN1CCN(CCn2nc3ccccc3n2)CC1 | 0.74 |
| COc1cccc2nc(N)nc(N)c12 | 1.18 |
| O=c1ccc(/C=C/c2ccc(-n3ccnc3)cc2)n[nH]1 | 1.21 |
| COc1cc2ncnc(Nc3cccc(F)c3)c2cc1OC | 2.96 |
| CCCCC(C)CC(O)C=CC1C(O)CC2CC(CCOCC(=O)OC)CC21 (stereo not drawn) | 4.5 |
| CSCCC(NC(=O)C(N)Cc1ccccc1)C(=O)O (stereo not drawn) (H-Phe-Met-OH; configuration not given here) | -1.59 |
| Nc1ncnc2c1ncn2C1OC(CCl)C(O)C1O (stereo not drawn) | -0.06 |
| Nc1nc(N)c2c(Oc3ccccc3)cccc2n1 | 2.78 |
| COc1cc(OC)c2c(c1)OC(c1ccc(OC)c(OC)c1)C(OC)C2 (stereo not drawn) | 3.68 |
| O=C(Nc1ncnc2nc[nH]c12)c1ccccc1 | 1.12 |
| CCC1(C(=O)NC(C)c2ccc(Cl)cc2)C(C)C1(Cl)Cl (stereo not drawn) | 4.23 |
| CC(=O)NCCC(=O)NCc1c(O)c(=O)cc(C)n1C | -1.7 |
| CCCCCC(=O)c1ccncc1 | 2.9 |
| CC(Nc1[nH]cnc2ncnc1-2)c1ccccc1 (stereo not drawn) | 2.58 |
| C=CC(=O)OCCOCCO | -0.3 |
| NC(=O)Cc1c[nH]c2ccccc12 | 0.75 |
| CC(=O)N(O)CCCCCNC(=O)CCC(=O)N(O)CCCCCNC(=O)CCC(=O)N(O)CCCCCNC(=O)CCC(=O)O | -0.51 |
| Clc1cc(Cl)c2c(oc3cccc(Cl)c32)c1Cl | 5.89 |

| SMILES | logP |
| --- | --- |
| CCOC(=O)C(C)(Cc1cccc2ccccc12)S(=O)(=O)c1ccc([N+](=O)[O-])cc1 (stereo not drawn) | 4.4 |
| Clc1ccc2c(oc3c(Cl)cc(Cl)c(Cl)c32)c1Cl | 6.27 |
| CC(=O)OCOC(=O)N(C)N=Nc1ccc(Br)cc1 | 3.64 |
| CC(=O)NC(CCCN(Cc1ccccc1)C(=O)N(C)N=O)C(=O)NCc1ccccc1 (stereo not drawn) | 2 |
| CC(C)CCCNc1[nH]cnc2ncnc1-2 | 3.06 |
| COc1ccc(C=C2C(=O)NC(=S)NC2=O)cc1 | 0.76 |
| CC1(C)CCC(C(F)(F)F)=[N+]1[O-] | 0.2 |
| COc1cc(NS(C)(=O)=O)ccc1-c1cn2cccnc2n1 | 0.72 |
| CNc1ccc2cc3ccccc3nc2c1CO | 2.1 |
| COc1ccc(CCNCC(O)COc2ccc(-c3nc(C)c[nH]3)cc2Br)cc1OC (stereo not drawn) | 3.8 |
| CCC(C)NCc1cccc(S(=O)(=O)c2csc(S(N)(=O)=O)c2)c1 (stereo not drawn) | 2.13 |
| C[N+](C)([O-])CCCN1c2ccccc2Sc2ccccc21 | 1.9 |
| C/C(=C\CNc1ncnc2[nH]cnc12)CO | 0.6 |
| O=C(O)c1cc(O)c(Br)c(O)c1 | 1.75 |
| COc1cc(OC)nc(Oc2cccc(C(F)(F)F)c2C(=O)O)n1 | 2.7 |
| CC(C)CC(NC(=O)C(N)Cc1ccc(O)cc1)C(=O)O (stereo not drawn) (H-Tyr-Leu-OH; configuration not given here) | -1.75 |
| CC(=O)OCC1=C(C(=O)O)N2C(=O)[C@@H](NC(=O)Cc3ccccc3)[C@H]2SC1 | 0.2 |
| COc1ccc(CNc2[nH]cnc3ncnc2-3)cc1 | 2.17 |
| O=C1C(NCCO)=C(N2CC2)C(=O)C(NCCO)=C1N1CC1 | -1.47 |
| CC(C)NCC(O)COc1ccc(-c2nc(C(C)C)c[nH]2)cc1 (stereo not drawn) | 2.95 |
| CCCC(=NOCC)C1=C(O)CC2(CCCC2)OC1=O | 3.22 |
| CCCCC(=O)c1ccncc1 | 2 |
| CC1=CCC(C)(C)C=CCC2(C)OC2CC1 (stereo not drawn) | 4.45 |
| O=c1cc(CSCCO)occ1O | -0.69 |
| CCOC(=O)c1ccc(N=NN(C)C(=O)OCOC(C)=O)cc1 | 3.44 |

| SMILES | logP |
| --- | --- |
| CC(C)=CCNc1ncnc2c1ncn2[C@@H]1O[C@H](CO)[C@@H](O)[C@H]1O | 1.3 |
| CC=C(C)C(=O)OCC1CCCC2(C)CCC(C(C)(C)O)CC12 (stereo not drawn) | 5.27 |
| COc1ccc(S(C)(=O)=O)cc1CNC1CCCNC1c1ccccc1 (stereo not drawn) | 1.9 |
| CC(C)CC(NC(=O)C(NC(=O)C1CCCN1C(=O)C(N)C(C)C)C(C)C)C(=O)O (stereo not drawn) (H-VPVL-OH; configuration not given here) | -1.91 |
| CCCc1c(O)c(=O)cc(C)n1C | 0.4 |
| Cc1cc2c(cc(C)c3ccc(=O)oc32)o1 | 2.92 |
| CC(=NNC(=S)N(C)C)c1cc(C)ccc1O | 2.26 |
| COCCNc1[nH]cnc2ncnc1-2 | 0.42 |
| CCCc1nc(NCC(=O)N(C)C)nc(N2CCOCC2)n1 | 0.67 |
| Cn1c(=O)[nH]c2ncn(C)c2c1=O | -0.22 |
| CC=C(C)C(=O)OC1CC(C)CCC1C(C)C (stereo not drawn) | 6.2 |
| CCOC(=O)C1=C(C)NC(C)=C(C(=O)OC)C1c1cccc2c1OCCO2 (stereo not drawn) | 3.57 |
| O=C(O)CCCCON=C(c1ccnnc1)c1cccc(C(F)(F)F)c1 | 2.99 |
| CC(C)C(=O)OCC(=O)C1(O)C(C)CC2C3CCC4=CC(=O)C=CC4(C)C3(F)C(O)CC21C (stereo not drawn) | 3.4 |
| O=C(NC1CCCCC1)NS(=O)(=O)c1cnccc1NC1CCCCCCC1 | 4.96 |
| Cc1[nH]cnc1CSCCNc1ncc(Cc2cccc3c2OCO3)c(=O)n1C | 2.51 |
| CCNC(=NC#N)NS(=O)(=O)c1cnccc1NC1CCCCCCC1 | 2.05 |
| COC1=CC(=O)c2c(c(COC(N)=O)c3n2CCC3OC(C)=O)C1=O (stereo not drawn) | 0.72 |
| COC(=O)C(C)NP(=O)(OCC1C=CC(n2cc(C)c(=O)[nH]c2=O)O1)Oc1ccc(C#N)cc1 (stereo not drawn) | 0.91 |
| COC(=O)C(C)NP(=O)(OCC1C=CC(n2cc(C)c(=O)[nH]c2=O)O1)Oc1ccccc1 (stereo not drawn) | 1.04 |
| C=CCC(=O)Nc1ccc(Cl)c(Cl)c1 | 3.63 |
| Cc1cccc(Nc2ccncc2S(=O)(=O)NC(=NC#N)NC(C)C)c1 | 1.86 |
| Nc1nnnn1-c1cccc(O)c1 | 0.56 |
